Data published in US20260297081A1, “COMPOUNDS AND METHODS OF TREATING CANCERS” (Cullgen Inc., priority 2023, published 2026).

Key:
Type in all cases: cell-based
T47D cells = assay: Anti-proliferation (viability) of ER+ breast cancer T47D cells, 6 days (Table 7, FIG. 2B); settings: Homo sapiens, 144 h; T47D cells, 6 days, 10-point serial dilution; read-out: GI IC50 in T47D
Procedure, shortened: (§1)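 Viability is read after treatment with compounds titrated over ten serial dilution points, with exposure lasting three days for the NSCLC line and six days for the breast cancer line.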

Calu-1 cells = assay: Anti-proliferation (viability) of NSCLC Calu-1 cells, 3 days (Table 7, FIG. 2B); settings: Homo sapiens, 72 h; Calu-1 cells, 3 days, 10-point serial dilution; read-out: GI IC50 in Calu-1
Procedure, shortened: as §1

CDK4 = CDK4 (Homo sapiens, UniProt P11802+Q16531); assay: CDK4 percentage degradation in Calu-1 cells (Table 6); set-up: Cells that express cyclin D1-3 and CDK4/6 proteins were treated with heterobifunctional compounds; endogenous in cells; host or cells: Calu-1; settings: 16 hours; for inhibition at 0.04 µM: 40 nM; for inhibition at 0.2 µM: 200 nM
Procedure, shortened: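 Percentage degradation of Cyclin D1 and CDK4 derived from densitometry of ECL Western blots on lysates of Calu-1 cells. Treatment was 16 h with compound at either 40 nM or 200 nM.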

MCF7 cells = assay: Anti-proliferation (viability) of MCF7 cells (Table 7, FIG. 2B); settings: Homo sapiens, MCF7, MCF7 cells, 3-6 days, 10-point serial dilution; read-out: GI IC50 in MCF-7

CDK4, sequence (P11802 2-303 limits assumed): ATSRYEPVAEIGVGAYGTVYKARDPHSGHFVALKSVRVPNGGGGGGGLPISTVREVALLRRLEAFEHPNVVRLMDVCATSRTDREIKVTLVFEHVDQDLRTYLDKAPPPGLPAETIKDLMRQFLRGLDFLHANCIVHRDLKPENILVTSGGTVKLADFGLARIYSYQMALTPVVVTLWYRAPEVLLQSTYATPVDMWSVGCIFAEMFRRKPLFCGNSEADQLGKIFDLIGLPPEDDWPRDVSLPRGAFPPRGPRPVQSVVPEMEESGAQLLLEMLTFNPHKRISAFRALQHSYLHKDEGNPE
CDK4, sequence (P24385 whole entry partner): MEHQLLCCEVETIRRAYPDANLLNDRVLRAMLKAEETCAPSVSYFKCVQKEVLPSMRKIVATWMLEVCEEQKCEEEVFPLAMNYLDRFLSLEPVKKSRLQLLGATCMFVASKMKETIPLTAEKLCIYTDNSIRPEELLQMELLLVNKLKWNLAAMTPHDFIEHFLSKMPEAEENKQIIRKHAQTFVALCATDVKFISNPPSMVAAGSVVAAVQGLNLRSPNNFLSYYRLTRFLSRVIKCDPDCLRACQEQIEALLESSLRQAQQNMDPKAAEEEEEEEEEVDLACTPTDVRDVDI
CDK4, sequence (Q16531 2-1140 limits assumed): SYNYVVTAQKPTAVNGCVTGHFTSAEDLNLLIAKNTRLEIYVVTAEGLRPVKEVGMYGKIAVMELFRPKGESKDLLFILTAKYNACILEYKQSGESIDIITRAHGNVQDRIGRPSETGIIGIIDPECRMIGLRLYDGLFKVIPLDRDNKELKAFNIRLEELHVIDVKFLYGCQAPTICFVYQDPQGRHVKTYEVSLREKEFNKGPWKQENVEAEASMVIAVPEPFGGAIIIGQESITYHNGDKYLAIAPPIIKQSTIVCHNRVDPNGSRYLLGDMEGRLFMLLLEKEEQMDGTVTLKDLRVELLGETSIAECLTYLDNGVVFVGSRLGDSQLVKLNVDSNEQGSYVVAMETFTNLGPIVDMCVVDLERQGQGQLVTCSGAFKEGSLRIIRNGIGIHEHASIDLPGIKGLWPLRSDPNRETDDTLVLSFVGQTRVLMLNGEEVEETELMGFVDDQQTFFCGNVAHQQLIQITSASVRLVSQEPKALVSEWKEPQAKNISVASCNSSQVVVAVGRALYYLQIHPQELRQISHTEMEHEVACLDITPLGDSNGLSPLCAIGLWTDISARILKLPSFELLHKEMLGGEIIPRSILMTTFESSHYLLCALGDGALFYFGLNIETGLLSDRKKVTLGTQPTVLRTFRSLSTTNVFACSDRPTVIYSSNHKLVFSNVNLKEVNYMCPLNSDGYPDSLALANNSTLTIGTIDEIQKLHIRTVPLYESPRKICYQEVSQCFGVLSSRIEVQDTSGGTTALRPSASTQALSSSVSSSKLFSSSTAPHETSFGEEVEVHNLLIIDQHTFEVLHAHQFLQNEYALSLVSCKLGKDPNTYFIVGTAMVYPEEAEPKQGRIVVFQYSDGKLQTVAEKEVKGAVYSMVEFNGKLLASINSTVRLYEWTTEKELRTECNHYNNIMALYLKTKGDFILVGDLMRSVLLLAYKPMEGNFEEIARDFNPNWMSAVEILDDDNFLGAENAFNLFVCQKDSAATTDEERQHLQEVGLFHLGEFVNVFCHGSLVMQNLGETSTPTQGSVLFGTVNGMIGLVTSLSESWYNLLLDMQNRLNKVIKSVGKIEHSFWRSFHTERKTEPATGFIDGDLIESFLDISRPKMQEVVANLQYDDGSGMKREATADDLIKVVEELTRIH

Row | SMILES | IC50 (T47D cells) | IC50 (Calu-1 cells) | inhibition at 0.04 µM (CDK4) | inhibition at 0.2 µM (CDK4) | IC50 (MCF7 cells)
1 | CC(=O)c1c(C)c2cnc(Nc3ccc(N4CCN(CC(=O)NCCCCCNc5nc(C)ccc5C(=O)Nc5ccc(N(C)C)nn5)CC4)cn3)nc2n(C2CCCC2)c1=O [CPD-16, 2-((5-(2-(4-(6-((6-Acetyl-8-cyclopentyl-5-methyl-7-oxo-7,8-dihydropyrido[2,3-d]pyrimidin-2-yl)amino)pyridin-3-yl)piperazin-1-yl)acetamido)pentyl)amino)-N-(6-(dimethylamino)pyridazin-3-yl)-6-methylnicotinamide] | ≤ 50 nM | ≤ 10 nM | 50 to 80% | 50 to 80% | < 50 nM
2 | CNc1ccc(C(=O)Nc2ccc(N(C)C)nn2)c(NCCCCCNCCN2CCN(c3ccc(Nc4ncc5c(C)c(C(C)=O)c(=O)n(C6CCCC6)c5n4)nc3)CC2)n1 [CPD-21, 2-((5-((2-(4-(6-((6-Acetyl-8-cyclopentyl-5-methyl-7-oxo-7,8-dihydropyrido[2,3-d]pyrimidin-2-yl)amino)pyridin-3-yl)piperazin-1-yl)ethyl)amino)pentyl)amino)-N-(6-(dimethylamino)pyridazin-3-yl)-6-(methylamino)nicotinamide] | 50 to 100 nM | 10 to 50 nM | 50 to 80% |  | > 100 nM
3 | CNc1ccc(C(=O)Nc2ccc(N(C)C)nn2)c(NCCCCC(C)NC(=O)CN2CCN(c3ccc(Nc4ncc5c(C)c(C(C)=O)c(=O)n(C6CCCC6)c5n4)nc3)CC2)n1 (centres unmarked) [CPD-22, 2-((5-(2-(4-(6-((6-Acetyl-8-cyclopentyl-5-methyl-7-oxo-7,8-dihydropyrido[2,3-d]pyrimidin-2-yl)amino)pyridin-3-yl)piperazin-1-yl)acetamido)hexyl)amino)-N-(6-(dimethylamino)pyridazin-3-yl)-6-(methylamino)nicotinamide] | ≤ 50 nM | ≤ 10 nM | > 80% | > 80% | 50 to 100 nM
4 | CC(=O)c1c(C)c2cnc(Nc3ccc(N4CCN(CC(=O)NCCCCCNc5nc(C6CC6)ccc5C(=O)Nc5ccc(N(C)C)nn5)CC4)cn3)nc2n(C2CCCC2)c1=O [CPD-27, 2-((5-(2-(4-(6-((6-Acetyl-8-cyclopentyl-5-methyl-7-oxo-7,8-dihydropyrido[2,3-d]pyrimidin-2-yl)amino)pyridin-3-yl)piperazin-1-yl)acetamido)pentyl)amino)-6-cyclopropyl-N-(6-(dimethylamino)pyridazin-3-yl)nicotinamide] | 50 to 100 nM | ≤ 10 nM | > 80% | > 80% | 50 to 100 nM
5 | CNc1ccc(C(=O)Nc2cccc(C)n2)c(NC2CC3(C2)CN(C(=O)CCN2CCN(c4ccc(Nc5ncc6c(C)c(C(C)=O)c(=O)n(C7CCCC7)c6n5)nc4)CC2)C3)n1 [CPD-155, 2-((2-(3-(4-(6-((6-acetyl-8-cyclopentyl-5-methyl-7-oxo-7,8-dihydropyrido[2,3-d]pyrimidin-2-yl)amino)pyridin-3-yl)piperazin-1-yl)propanoyl)-2-azaspiro[3.3]heptan-6-yl)amino)-6-(methylamino)-N-(6-methylpyridin-2-yl)nicotinamide] | 50 to 100 nM | ≤ 10 nM | 50 to 80% | > 80% | > 100 nM
6 | CNc1ccc(C(=O)Nc2cc(C)n(C)n2)c(NCCCCCNC(=O)CN2CCN(c3ccc(Nc4ncc5c(C)c(C(C)=O)c(=O)n(C6CCCC6)c5n4)nc3)CC2)n1 [CPD-50, 2-((5-(2-(4-(6-((6-acetyl-8-cyclopentyl-5-methyl-7-oxo-7,8-dihydropyrido[2,3-d]pyrimidin-2-yl)amino)pyridin-3-yl)piperazin-1-yl)acetamido)pentyl)amino)-N-(1,5-dimethyl-1H-pyrazol-3-yl)-6-(methylamino)nicotinamide] | 50 to 100 nM | ≤ 10 nM | 50 to 80% | 50 to 80% | < 50 nM
7 | CNc1ccc(C(=O)Nc2cccc(C3CC3)n2)c(NCCCCCNC(=O)CN2CCN(c3ccc(Nc4ncc5c(C)c(C(C)=O)c(=O)n(C6CCCC6)c5n4)nc3)CC2)n1 [CPD-51, 2-((5-(2-(4-(6-((6-Acetyl-8-cyclopentyl-5-methyl-7-oxo-7,8-dihydropyrido[2,3-d]pyrimidin-2-yl)amino)pyridin-3-yl)piperazin-1-yl)acetamido)pentyl)amino)-N-(6-cyclopropylpyridin-2-yl)-6-(methylamino)nicotinamide] | 50 to 100 nM | ≤ 10 nM | 50 to 80% | 50 to 80% | 50 to 100 nM
8 | CNc1ccc(C(=O)Nc2ccc(OC)nn2)c(NCCCCCCCNC(=O)CN2CCN(c3ccc(Nc4ncc5c(C)c(C(C)=O)c(=O)n(C6CCCC6)c5n4)nc3)CC2)n1 [CPD-11, 2-((7-(2-(4-(6-((6-Acetyl-8-cyclopentyl-5-methyl-7-oxo-7,8-dihydropyrido[2,3-d]pyrimidin-2-yl)amino)pyridin-3-yl)piperazin-1-yl)acetamido)heptyl)amino)-N-(6-methoxypyridazin-3-yl)-6-(methylamino)nicotinamide] | 50 to 100 nM | 10 to 50 nM | 50 to 80% | > 80% | < 50 nM
9 | CC(=O)c1c(C)c2cnc(Nc3ccc(N4CCN(CC(=O)NCCCCCNc5nc(C(C)C)ccc5C(=O)Nc5ccc(N(C)C)nn5)CC4)cn3)nc2n(C2CCCC2)c1=O [CPD-63, 2-((5-(2-(4-(6-((6-Acetyl-8-cyclopentyl-5-methyl-7-oxo-7,8-dihydropyrido[2,3-d]pyrimidin-2-yl)amino)pyridin-3-yl)piperazin-1-yl)acetamido)pentyl)amino)-N-(6-(dimethylamino)pyridazin-3-yl)-6-isopropylnicotinamide] | ≤ 50 nM | ≤ 10 nM | > 80% | > 80% | < 50 nM

Second part, the compound after the results:

Row | IC50 (T47D cells) | IC50 (Calu-1 cells) | inhibition at 0.04 µM (CDK4) | inhibition at 0.2 µM (CDK4) | IC50 (MCF7 cells) | SMILES
10 | 50 to 100 nM | ≤ 10 nM | 50 to 80% | > 80% | < 50 nM | CNc1ccc(C(=O)Nc2ccc(N(C)C)nn2)c(NC2CC(CC(=O)NCCN3CCN(c4ccc(Nc5ncc6c(C)c(C(C)=O)c(=O)n(C7CCCC7)c6n5)nc4)CC3)C2)n1 (centres unmarked) [CPD-101, 2-((3-(2-((2-(4-(6-((6-Acetyl-8-cyclopentyl-5-methyl-7-oxo-7,8-dihydropyrido[2,3-d]pyrimidin-2-yl)amino)pyridin-3-yl)piperazin-1-yl)ethyl)amino)-2-oxoethyl)cyclobutyl)amino)-N-(6-(dimethylamino)pyridazin-3-yl)-6-(methylamino)nicotinamide]
11 | 50 to 100 nM | ≤ 10 nM | 50 to 80% | 50 to 80% | > 100 nM | [2H]C([2H])([2H])Nc1ccc(C(=O)Nc2ccc(N(C)C)nn2)c(NCCCCCNC(=O)CN2CCN(c3ccc(Nc4ncc5c(C)c(C(C)=O)c(=O)n(C6CCCC6)c5n4)nc3)CC2)n1 [CPD-66, 2-((5-(2-(4-(6-((6-Acetyl-8-cyclopentyl-5-methyl-7-oxo-7,8-dihydropyrido[2,3-d]pyrimidin-2-yl)amino)pyridin-3-yl)piperazin-1-yl)acetamido)pentyl)amino)-N-(6-(dimethylamino)pyridazin-3-yl)-6-((methyl-d3)amino)nicotinamide]
12 | 50 to 100 nM | ≤ 10 nM | 50 to 80% | 50 to 80% | < 50 nM | CCc1ccc(C(=O)Nc2ccc(N(C)C)nn2)c(NCCCCCNC(=O)CN2CCN(c3ccc(Nc4ncc5c(C)c(C(C)=O)c(=O)n(C6CCCC6)c5n4)nc3)CC2)n1 [CPD-54, 2-((5-(2-(4-(6-((6-Acetyl-8-cyclopentyl-5-methyl-7-oxo-7,8-dihydropyrido[2,3-d]pyrimidin-2-yl)amino)pyridin-3-yl)piperazin-1-yl)acetamido)pentyl)amino)-N-(6-(dimethylamino)pyridazin-3-yl)-6-ethylnicotinamide]
13 | 50 to 100 nM | 10 to 50 nM | < 30% | < 30% | > 100 nM | CNc1ccc(C(=O)Nc2ccc(N(C)C)nn2)c(NC2CC3(C2)CC(OCC(=O)N2CCN(c4ccc(Nc5ncc6c(C)c(C(C)=O)c(=O)n(C7CCCC7)c6n5)nc4)CC2)C3)n1 (centres unmarked) [CPD-84, 2-((6-(2-(4-(6-((6-Acetyl-8-cyclopentyl-5-methyl-7-oxo-7,8-dihydropyrido[2,3-d]pyrimidin-2-yl)amino)pyridin-3-yl)piperazin-1-yl)-2-oxoethoxy)spiro[3.3]heptan-2-yl)amino)-N-(6-(dimethylamino)pyridazin-3-yl)-6-(methylamino)nicotinamide]
14 | 50 to 100 nM | ≤ 10 nM | 50 to 80% | 50 to 80% | < 50 nM | CNc1ccc(C(=O)Nc2ccc(N(C)C)nn2)c(NCCCCCNC(=O)C(C)N2CCN(c3ccc(Nc4ncc5c(C)c(C(C)=O)c(=O)n(C6CCCC6)c5n4)nc3)CC2)n1 (centres unmarked) [CPD-14, 2-((5-(2-(4-(6-((6-Acetyl-8-cyclopentyl-5-methyl-7-oxo-7,8-dihydropyrido[2,3-d]pyrimidin-2-yl)amino)pyridin-3-yl)piperazin-1-yl)propanamido)pentyl)amino)-N-(6-(dimethylamino)pyridazin-3-yl)-6-(methylamino)nicotinamide]
15 | 50 to 100 nM | 10 to 50 nM | 50 to 80% | 50 to 80% | 50 to 100 nM | CNc1ccc(C(=O)Nc2ccc(N(C)C)nn2)c(NC[C@H]2CC[C@H](NC(=O)CN3CCN(c4ccc(Nc5ncc6c(C)c(C(C)=O)c(=O)n(C7CCCC7)c6n5)nc4)CC3)CC2)n1 [CPD-73]
